Results taken from ChEMBL document CHEMBL2157973, “An efficient synthesis of 3-OBn-6β,14-epoxy-bridged opiates from naltrexone and identification of a related dual MOR inverse agonist/KOR agonist” (Bioorg Med Chem Lett, 2012).

How the values were obtained:
Assay type in all cases: functional, cell-based
Mu-type opioid receptor [1] = target: T1, Mu-type opioid receptor (Homo sapiens, UniProt P35372); test: Inverse agonist activity at human recombinant mu opioid receptor expressed in CHO cells after 3 hrs by [35S]GTPgammaS binding assay relative to KC-2-009
T1 sequence (P35372 whole entry): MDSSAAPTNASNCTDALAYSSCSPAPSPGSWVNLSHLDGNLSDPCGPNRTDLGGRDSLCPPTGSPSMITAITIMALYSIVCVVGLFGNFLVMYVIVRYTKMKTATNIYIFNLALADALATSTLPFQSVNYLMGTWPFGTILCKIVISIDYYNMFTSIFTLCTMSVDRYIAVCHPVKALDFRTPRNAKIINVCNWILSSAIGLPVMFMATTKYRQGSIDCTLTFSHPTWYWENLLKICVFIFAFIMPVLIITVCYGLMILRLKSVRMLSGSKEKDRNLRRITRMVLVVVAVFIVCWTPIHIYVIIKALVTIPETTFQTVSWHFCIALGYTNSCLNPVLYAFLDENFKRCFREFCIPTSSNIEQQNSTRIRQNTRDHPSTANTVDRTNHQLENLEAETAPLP

[2] = target: Kappa-type opioid receptor (Homo sapiens) (UniProt P41145); test: Agonist activity at human kappa opioid receptor expressed in CHO cells after 3 hrs by [35S]GTPgammaS binding assay
Sequence of Kappa-type opioid receptor (Homo sapiens) (P41145 whole entry): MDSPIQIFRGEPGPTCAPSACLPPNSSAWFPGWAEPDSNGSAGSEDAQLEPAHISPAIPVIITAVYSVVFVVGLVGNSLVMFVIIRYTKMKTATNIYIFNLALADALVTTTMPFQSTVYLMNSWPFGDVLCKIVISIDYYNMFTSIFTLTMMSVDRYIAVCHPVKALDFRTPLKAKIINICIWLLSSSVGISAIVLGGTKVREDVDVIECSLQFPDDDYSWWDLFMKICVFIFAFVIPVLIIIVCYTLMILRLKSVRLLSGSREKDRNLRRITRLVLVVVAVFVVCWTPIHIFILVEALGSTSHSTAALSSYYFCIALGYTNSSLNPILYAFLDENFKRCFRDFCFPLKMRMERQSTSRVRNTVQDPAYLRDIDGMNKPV

[3] = target: Kappa-type opioid receptor (Homo sapiens) (UniProt P41145); test: Agonist activity at human kappa opioid receptor expressed in CHO cells after 3 hrs by [35S]GTPgammaS binding assay relative to control
Mu-type opioid receptor [4] = target: T1, Mu-type opioid receptor; test: Inverse agonist activity at human recombinant mu opioid receptor expressed in CHO cells after 3 hrs by [35S]GTPgammaS binding assay

Oc1ccc2c3c1O[C@H]1[C@H](O)CC[C@@]4(O)[C@@H](C2)N(CC2CC2)CC[C@]314
Emax (Mu-type opioid receptor [1]): 89%

CS(=O)(=O)O[C@@H]1CC[C@@]2(O)[C@H]3Cc4ccc(O)c5c4[C@@]2(CCN3CC2CC2)[C@H]1O5
ED50 [2]: 26 nM | Emax (Mu-type opioid receptor [1]): 60.5% | Emax [3]: 48% | EC50 (Mu-type opioid receptor [4]): 2.6 nM
